What all share (assay type): cell-based
In experiment [1] the test system is MDA-MB-436. In words: WST-8 cell growth inhibition assay, MDA-MB-436. The conditions noted are these: Homo sapiens, WST-8, Table 6. As for the experimental part: (§1) Cpd. Nos. 7 and 18 were tested in various triple-negative breast cancer cell lines using the WST-8 cell growth assay.
(Formazan colour is commonly taken as a measure of viable cells.)

For experiment [2], the system named is HBL100. Nature of the experiment: WST-8 cell growth inhibition assay, HBL100. To be noted: Homo sapiens, HBL-100; WST-8, Table 6. As to the method: as §1
Experiment [3] relates to MDA-MB-231. Nature of the experiment: WST-8 cell growth inhibition assay, MDA-MB-231. The conditions noted are these: Homo sapiens, WST-8, Table 6. As for the experimental part: as §1
The test system of experiment [4] is HL60. Nature of the experiment: CellTiter-Glo cell viability, HL60 leukemia cell line. The conditions noted are these: Homo sapiens, HL-60, Table 5. As for the experimental part: (§2) Cell growth inhibitory activity of representative Compounds of the Disclosure was determined using the CellTiter-Glo® Luminescent Cell Viability Assay. Cells were seeded in 384-well white opaque cell culture plates at a density of 2,000 cells/well with serially diluted compounds and incubated at 37° C. in an atmosphere of 95% air and 5% CO2 for 4 days. Cell viability was determined using the CellTiter-Glo® Luminescent Cell Viability Assay Kit (Promega, Madison, Wis.) according to the manufacture's instruction. Briefly, a volume of CellTiter-Glo® Reagent equal to the volume of cell culture medium was added to each well, and then the plates were incubated at room temperature for 10-20 minutes. The luminescent signal was measured using a Tecan Infinite M1000 multimode microplate reader (Tecan, Morrisville, N.C.). The half maximal inhibitory concentration (IC50) was calculated using the GraphPad Prism 5 software (GraphPad Software, La Jolla, Calif.).
(§3) Cpd. Nos. 18 and 19 were tested in various leukemia cell lines using the CellTiter-Glo® Luminescent Cell Viability Assay as described in Example 35.
(ATP-based viability assays read luminescence as a measure of living cells.)

The subject of experiment [5] is RS4;11. In words: CellTiter-Glo cell growth inhibition, RS4;11. The conditions noted are these: Homo sapiens. The essentials:
(§4)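 Leukemia cells seeded at 2,000 cells/well with serially diluted compounds, 4 days at 37 °C, 5% CO2. Viability by CellTiter-Glo luminescence after 10-20 min at RT. IC50 calculated from the curves.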

For experiment [6], the system named is AML5. Nature of the experiment: CellTiter-Glo cell viability, AML5 leukemia cell line. To be noted: Table 5. As to the method: as §2, §3
Experiment [7] relates to MOLM-13. In words: CellTiter-Glo cell growth inhibition, MOLM-13. The conditions noted are these: Homo sapiens. The essentials:
as §4

Experiment [8] has as its target T1, BRD2 (Homo sapiens, UniProt P25440).
T1 construct: endogenous in cells; host or cells: RS4;11 and MOLM-13 leukemia cells
In words: Western blot, degradation of BRD2 in RS4;11 cells. To be noted: 2.5 h, as compared to Compound A, FIG. 1. As for the experimental part:
(§5) Cells were treated with compounds at the indicated concentrations for 2.5 h and 3 h, respectively, for RS4;11 (see FIG. 1) and MOLM-13 (see FIG. 2) cells. Compound A is ((S)-3-benzyl-6,9-dimethyl-2-((1-methyl-1H-pyrazol-4-yl)ethynyl)-4H,6H-thieno[2,3-e][1,2,4]triazolo[3,4-c][1,4]oxazepine). See Cpd. No. 85 of U.S. Appl. No. 62/295,271.
(§6) Collected cells were lysed in lysis buffer [1% CHAPS, 150 mM NaCl, 20 mM Tris-HCl, 1 mM. EDTA, 1 mM EGTA, and COMPLETE proteinase inhibitor (Roche)] for 30 minutes on ice. Protein concentrations were determined using the Bio-Rad Protein Assay Dye reagent. Whole tumor lysates (20 μg) were separated on a 4-20% Novex gels (Invitrogen). The separated proteins were transferred to a PVDF membrane (BIO-RAD) and the PVDF membrane was then blotted with 5% Blotting-Grade Blocker (BIO-RAD) for 1 hour at room temperature. The primary antibodies used were BRD4 rabbit polyclonal antibody [Bethyl Laboratories, Inc, cat #A301] and BRD2 antibody.
(§7) The BIO-RAD Clarity Western ECL Substrates (BIO-RAD) and HyBlot CL film (Denville) were used for signal development and detection using a SRX-101A tabletop processor (Konica Minolta).
On the technique in general: In western blotting, separated proteins are transferred to a membrane and probed.

For experiment [9], the system named is MDA-MB-474. Nature of the experiment: WST-8 cell growth inhibition assay, MDA-MB-474. To be noted: WST-8, Table 6. As for the experimental part: as §1
In experiment [10] the test system is MDA-MB-453. In words: WST-8 cell growth inhibition assay, MDA-MB-453. The conditions noted are these: Homo sapiens, WST-8, Table 6. As to the method: as §1
Experiment [11] deals with MDA-MB-468. Nature of the experiment: WST-8 cell growth inhibition assay, MDA-MB-468. To be noted: Homo sapiens, WST-8, Table 6. As for the experimental part: as §1
Experiment [12] deals with MDA-MB-231. In words: CellTiter-Glo cell growth inhibition, MDA-MB-231. The conditions noted are these: Homo sapiens, MDA-MB-231, 96 h, 4 days, Table 4. The method in brief: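 Cells seeded at 2,000 cells/well with serially diluted compound and incubated 4 days at 37 °C, 5% CO2. Viability read by CellTiter-Glo luminescence after 10-20 min at room temperature; IC50 calculated from the dose-response.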

The test system of experiment [13] is MonoMac6. Nature of the experiment: CellTiter-Glo cell viability, MonoMac6 leukemia cell line. To be noted: Homo sapiens, MONO-MAC-6, Table 5. As for the experimental part: as §2, §3
The subject of experiment [14] is MV4; 11. In words: CellTiter-Glo cell viability, MV4;11 leukemia cell line. To be noted: Homo sapiens, Table 5. As for the experimental part:
as §2, §3

For experiment [15], the system named is AML3. In words: CellTiter-Glo cell viability, AML3 leukemia cell line. To be noted: Table 5. As to the method: as §2, §3
In experiment [16] the target is T2, BRD4 (Homo sapiens, UniProt O60885).
T2 construct: Collected cells were lysed in lysis buffer; endogenous in cells; host or cells: RS4;11 and MOLM-13 leukemia cells
In words: Western blot, degradation of BRD4 in MOLM-13 cells. The conditions noted are these: 3 h, as compared to Compound A, FIG. 2. As for the experimental part:
as §5, §6, §7

SMILES strings stand for the structures. Like-named read-outs stand apart in the source and are kept apart here.

T1 sequence (P25440 whole entry): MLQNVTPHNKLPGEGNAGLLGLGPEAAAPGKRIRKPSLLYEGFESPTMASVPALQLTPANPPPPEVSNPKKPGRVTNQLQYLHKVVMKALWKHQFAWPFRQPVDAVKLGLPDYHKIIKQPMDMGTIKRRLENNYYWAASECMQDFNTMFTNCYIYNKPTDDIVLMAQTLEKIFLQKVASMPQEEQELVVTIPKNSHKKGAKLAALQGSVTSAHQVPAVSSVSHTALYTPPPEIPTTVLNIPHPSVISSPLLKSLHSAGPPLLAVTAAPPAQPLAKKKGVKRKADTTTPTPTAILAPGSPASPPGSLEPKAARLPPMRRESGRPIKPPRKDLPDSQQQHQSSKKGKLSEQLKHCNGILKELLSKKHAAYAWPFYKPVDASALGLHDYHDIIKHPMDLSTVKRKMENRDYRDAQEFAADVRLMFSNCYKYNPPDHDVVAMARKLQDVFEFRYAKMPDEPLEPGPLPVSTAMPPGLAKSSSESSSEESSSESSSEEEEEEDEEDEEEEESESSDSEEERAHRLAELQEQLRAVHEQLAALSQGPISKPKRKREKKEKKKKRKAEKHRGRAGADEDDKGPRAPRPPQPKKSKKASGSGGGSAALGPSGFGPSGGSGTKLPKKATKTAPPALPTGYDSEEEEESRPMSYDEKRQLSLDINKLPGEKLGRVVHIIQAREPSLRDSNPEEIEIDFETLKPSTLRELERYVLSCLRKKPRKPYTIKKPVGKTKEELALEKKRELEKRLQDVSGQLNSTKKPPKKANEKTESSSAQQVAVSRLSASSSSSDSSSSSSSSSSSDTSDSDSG

What is called IC50 is the point on the concentration scale where inhibition reaches its midpoint. Consider `Cc1nnc2n1-c1sc(C#Cc3cnn(CCCC#Cc4cccc5c4CN(C4CCC(=O)NC4=O)C5=O)c3)c(Cc3ccccc3)c1CO[C@H]2C` (stereo partly drawn) [Cpd. No. 18, 3-(4-(5-(4-(((S)-3-benzyl-6,9-dimethyl-4H,6H-thieno[2,3-e][1,2,4]triazolo[3,4-c][1,4]oxazepin-2-yl)ethynyl)-1H-pyrazol-1-yl)pent-1-yn-1-yl)-1-oxoisoindolin-2-yl) piperidine-2,6-dione], for which the IC50 turned out to be 1.52 ± 0.21 nM in [1]; 0.84 ± 0.14 nM in [2]; 0.76 ± 0.08 nM in experiment [3]; 0.003 ± 0.001 nM in experiment [4]; 0.03 nM in [5] (RS4-11, 96 h, 4 days, Table 4, read-out: RS-4, 11 IC50); 0.004 ± 0.001 nM in experiment [5] (RS4-11, Table 5, read-out: IC50 (nM) RS4, 11). The half-inhibitory concentration (IC50) was less than 0.01 nM in experiment [6]; 1 nM in [7] (MOLM-13, 96 h, 4 days, Table 4, read-out: MOLM-13 IC50); 0.5 nM in experiment [7] (MOLM-13, Table 5, read-out: IC50 (nM) MOLM13); 0.31 ± 0.01 nM in experiment [9]; 0.25 ± 0.04 nM in experiment [10]; 0.78 ± 0.06 nM in [11]. Moreover, the half-inhibitory concentration (IC50) turned out to be 1.5 nM in experiment [12], 0.014 ± 0.004 nM in experiment [13], 0.06 ± 0.006 nM in experiment [14] and 0.03 ± 0.006 nM in experiment [15]. Also, in experiment [8], the “degradation of BRD2 protein (Western blot)” value is given as “induce degradation”. In addition, in [16], the “degradation of BRD4 protein (Western blot)” value is listed as “induce degradation”.

(Values after patent US11466028B2, “Fused 1,4-oxazepines as BET protein degraders” (THE REGENTS OF THE UNIVERSITY OF MICHIGAN, priority 2016, dated 2022).)
